Source: ChEMBL document CHEMBL1139682, “Synthesis and biological evaluation of technetium-99m-labeled deoxyglucose derivatives as imaging agents for tumor” (Bioorg Med Chem Lett, 2006)

What was measured:
[1] = Biodistribution in blood of TA2 mouse bearing MA891 xenograft after 30 mins; assay type: ADME, organism-based; settings: read-out: Drug uptake
[2] = Biodistribution in liver of TA2 mouse bearing MA891 xenograft after 30 mins; assay type: ADME, organism-based; settings: read-out: Drug uptake
[3] = Biodistribution in lung of TA2 mouse bearing MA891 xenograft after 30 mins; assay type: ADME, organism-based; settings: read-out: Drug uptake
[4] = Biodistribution in stomach of TA2 mouse bearing MA891 xenograft after 30 mins; assay type: ADME, organism-based; settings: read-out: Drug uptake
[5] = Biodistribution in spleen of TA2 mouse bearing MA891 xenograft after 30 mins; assay type: ADME, organism-based; settings: read-out: Drug uptake
[6] = Biodistribution in kidney of TA2 mouse bearing MA891 xenograft after 30 mins; assay type: ADME, organism-based; settings: read-out: Drug uptake
[7] = Biodistribution in intestine of TA2 mouse bearing MA891 xenograft after 30 mins; assay type: ADME, organism-based; settings: read-out: Drug uptake
[8] = Biodistribution in muscle of TA2 mouse bearing MA891 xenograft after 30 mins; assay type: ADME, organism-based, Muscle tissue; settings: read-out: Drug uptake
[9] = Biodistribution in tumor of TA2 mouse bearing MA891 xenograft after 30 mins; assay type: ADME, organism-based; settings: read-out: Drug uptake
[10] = Biodistribution in brain of TA2 mouse bearing MA891 xenograft after 30 mins; assay type: ADME, organism-based; settings: read-out: Drug uptake
[11] = Biodistribution in heart of TA2 mouse bearing MA891 xenograft after 30 mins; assay type: ADME, organism-based; settings: read-out: Drug uptake
[12] = Ratio of uptake in tumor to […] of TA2 mouse bearing MA891 xenograft after 30 mins; assay type: ADME; settings: in vivo, 0.5 h
[13] = Ratio of uptake in tumor to muscle of TA2 mouse bearing MA891 xenograft after 30 mins; assay type: ADME; settings: in vivo, 0.5 h
[14] = Biodistribution in blood of TA2 mouse bearing MA891 xenograft after 2 hrs; assay type: ADME, organism-based; settings: read-out: Drug uptake
[15] = Biodistribution in lung of TA2 mouse bearing MA891 xenograft after 2 hrs; assay type: ADME, organism-based; settings: read-out: Drug uptake
[16] = Biodistribution in stomach of TA2 mouse bearing MA891 xenograft after 2 hrs; assay type: ADME, organism-based; settings: read-out: Drug uptake
[17] = Biodistribution in spleen of TA2 mouse bearing MA891 xenograft after 2 hrs; assay type: ADME, organism-based; settings: read-out: Drug uptake
[18] = Biodistribution in kidney of TA2 mouse bearing MA891 xenograft after 2 hrs; assay type: ADME, organism-based; settings: read-out: Drug uptake
[19] = Biodistribution in intestine of TA2 mouse bearing MA891 xenograft after 2 hrs; assay type: ADME, organism-based; settings: read-out: Drug uptake
[20] = Biodistribution in muscle of TA2 mouse bearing MA891 xenograft after 2 hrs; assay type: ADME, organism-based, Muscle tissue; settings: read-out: Drug uptake
[21] = Biodistribution in tumor of TA2 mouse bearing MA891 xenograft after 2 hrs; assay type: ADME, organism-based; settings: read-out: Drug uptake
[22] = Biodistribution in brain of TA2 mouse bearing MA891 xenograft after 2 hrs; assay type: ADME, organism-based; settings: read-out: Drug uptake
[23] = Biodistribution in heart of TA2 mouse bearing MA891 xenograft after 2 hrs; assay type: ADME, organism-based; settings: read-out: Drug uptake
[24] = Ratio of uptake in tumor to blood of TA2 mouse bearing MA891 xenograft after 2 hrs; assay type: ADME
[25] = Ratio of uptake in tumor to muscle of TA2 mouse bearing MA891 xenograft after 2 hrs; assay type: ADME; settings: in vivo
[26] = Biodistribution in blood of TA2 mouse bearing MA891 xenograft after 4 hrs; assay type: ADME, organism-based; settings: read-out: Drug uptake
[27] = Biodistribution in lung of TA2 mouse bearing MA891 xenograft after 4 hrs; assay type: ADME, organism-based; settings: read-out: Drug uptake
[28] = Biodistribution in liver of TA2 mouse bearing MA891 xenograft after 4 hrs; assay type: ADME, organism-based; settings: read-out: Drug uptake
[29] = Biodistribution in stomach of TA2 mouse bearing MA891 xenograft after 4 hrs; assay type: ADME, organism-based; settings: read-out: Drug uptake
[30] = Biodistribution in spleen of TA2 mouse bearing MA891 xenograft after 4 hrs; assay type: ADME, organism-based; settings: read-out: Drug uptake
[31] = Biodistribution in kidney of TA2 mouse bearing MA891 xenograft after 4 hrs; assay type: ADME, organism-based; settings: read-out: Drug uptake
[32] = Biodistribution in intestine of TA2 mouse bearing MA891 xenograft after 4 hrs; assay type: ADME, organism-based; settings: read-out: Drug uptake
[33] = Biodistribution in muscle of TA2 mouse bearing MA891 xenograft after 4 hrs; assay type: ADME, organism-based, Muscle tissue; settings: read-out: Drug uptake
[34] = Biodistribution in tumor of TA2 mouse bearing MA891 xenograft after 4 hrs; assay type: ADME, organism-based; settings: read-out: Drug uptake
[35] = Biodistribution in brain of TA2 mouse bearing MA891 xenograft after 4 hrs; assay type: ADME, organism-based; settings: read-out: Drug uptake
[36] = Biodistribution in heart of TA2 mouse bearing MA891 xenograft after 4 hrs; assay type: ADME, organism-based; settings: read-out: Drug uptake
[37] = Ratio of uptake in tumor to […] of TA2 mouse bearing MA891 xenograft after 4 hrs; assay type: ADME; settings: in vivo
[38] = Ratio of uptake in tumor to muscle of TA2 mouse bearing MA891 xenograft after 4 hrs; assay type: ADME; settings: in vivo
[39] = Biodistribution in liver of TA2 mouse bearing MA891 xenograft after 2 hrs; assay type: ADME, organism-based; settings: read-out: Drug uptake
[40] = Partition coefficient, log P of the compound; assay type: physicochemical; settings: octanol/water

Compound: CSCC(=O)NC1[C@H](O)O[C@H](CO)[C@@H](O)[C@@H]1O (stereo not given in full)
- tissue uptake at 0.5 h [1]: 3.32 %ID/g
- tissue uptake at 0.5 h [2]: 5.9 %ID/g
- tissue uptake at 0.5 h [3]: 2.73 %ID/g
- tissue uptake at 0.5 h [4]: 3.69 %ID/g
- tissue uptake at 0.5 h [5]: 1.81 %ID/g
- tissue uptake at 0.5 h [6]: 8.8 %ID/g
- tissue uptake at 0.5 h [7]: 2.24 %ID/g
- tissue uptake at 0.5 h [8]: 0.51 %ID/g
- tissue uptake at 0.5 h [9]: 1.53 %ID/g
- tissue uptake at 0.5 h [10]: 0.11 %ID/g
- tissue uptake at 0.5 h [11]: 0.9 %ID/g
- Ratio [12]: 0.47
- Ratio [13]: 3.2
- tissue uptake at 2 h [14]: 2.22 %ID/g
- tissue uptake at 2 h [15]: 1.48 %ID/g
- tissue uptake at 2 h [16]: 3.17 %ID/g
- tissue uptake at 2 h [17]: 1.36 %ID/g
- tissue uptake at 2 h [18]: 10.8 %ID/g
- tissue uptake at 2 h [19]: 4.07 %ID/g
- tissue uptake at 2 h [20]: 0.45 %ID/g
- tissue uptake at 2 h [21]: 1.25 %ID/g
- tissue uptake at 2 h [22]: 0.07 %ID/g
- tissue uptake at 2 h [23]: 0.57 %ID/g
- Kp at 2 h [24]: 0.59
- Ratio [25]: 2.85
- tissue uptake at 4 h [26]: 1.29 %ID/g
- tissue uptake at 4 h [27]: 0.98 %ID/g
- tissue uptake at 4 h [28]: 4.18 %ID/g
- tissue uptake at 4 h [29]: 1.41 %ID/g
- tissue uptake at 4 h [30]: 1.6 %ID/g
- tissue uptake at 4 h [31]: 13.2 %ID/g
- tissue uptake at 4 h [32]: 1.29 %ID/g
- tissue uptake at 4 h [33]: 0.33 %ID/g
- tissue uptake at 4 h [34]: 1.06 %ID/g
- tissue uptake at 4 h [35]: 0.04 %ID/g
- tissue uptake at 4 h [36]: 0.38 %ID/g
- Ratio [37]: 0.82
- Ratio [38]: 3.29
- tissue uptake at 2 h [39]: 4.75 %ID/g
- logP [40]: -2.92
